# Measured values: patent US9884063B2, “Amido-substituted azole compounds” (Bayer Pharma Aktiengesellschaft, priority 2014, dated 2018)
# Key:
# TNKS2 = target: T1, TNKS2 (Homo sapiens, UniProt Q9H2K2); assay: Modified TNKS2 Assay 2 (auto-parsylation, [3H]-NAD+ SPA); assay type: biochemical; details: 6 nM TNKS2, 96 well
# T1 sequence (Q9H2K2 1-1166): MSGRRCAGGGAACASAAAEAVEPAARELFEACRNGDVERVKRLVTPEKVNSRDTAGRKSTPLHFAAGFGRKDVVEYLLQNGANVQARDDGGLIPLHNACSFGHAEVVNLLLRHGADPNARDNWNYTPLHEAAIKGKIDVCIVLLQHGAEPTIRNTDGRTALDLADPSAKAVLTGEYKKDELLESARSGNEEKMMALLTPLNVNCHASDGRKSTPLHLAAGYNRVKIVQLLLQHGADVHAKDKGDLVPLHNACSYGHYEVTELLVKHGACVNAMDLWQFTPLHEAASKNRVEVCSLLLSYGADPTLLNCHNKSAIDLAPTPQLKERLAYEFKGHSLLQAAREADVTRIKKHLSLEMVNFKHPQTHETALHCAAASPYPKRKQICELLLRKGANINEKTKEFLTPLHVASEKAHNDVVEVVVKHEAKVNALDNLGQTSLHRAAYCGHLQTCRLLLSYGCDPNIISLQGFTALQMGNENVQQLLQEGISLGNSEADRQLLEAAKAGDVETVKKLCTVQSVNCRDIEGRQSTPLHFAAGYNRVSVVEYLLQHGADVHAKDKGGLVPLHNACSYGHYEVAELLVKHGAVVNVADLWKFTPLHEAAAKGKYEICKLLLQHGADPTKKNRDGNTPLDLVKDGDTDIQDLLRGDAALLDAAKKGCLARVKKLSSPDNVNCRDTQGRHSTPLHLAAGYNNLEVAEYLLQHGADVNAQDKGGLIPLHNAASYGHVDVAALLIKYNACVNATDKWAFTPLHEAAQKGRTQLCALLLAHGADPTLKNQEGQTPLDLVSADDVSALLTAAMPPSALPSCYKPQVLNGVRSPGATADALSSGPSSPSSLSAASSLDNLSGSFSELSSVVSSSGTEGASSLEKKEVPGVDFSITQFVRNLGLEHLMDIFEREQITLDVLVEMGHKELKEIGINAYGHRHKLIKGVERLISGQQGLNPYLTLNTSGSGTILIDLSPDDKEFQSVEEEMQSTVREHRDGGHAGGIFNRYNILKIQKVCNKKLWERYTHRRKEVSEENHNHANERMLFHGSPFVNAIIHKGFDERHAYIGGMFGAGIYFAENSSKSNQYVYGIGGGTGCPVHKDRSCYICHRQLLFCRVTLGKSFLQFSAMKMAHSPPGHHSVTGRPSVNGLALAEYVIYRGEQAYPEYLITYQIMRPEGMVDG
# Protocol: The potency of selected compounds according to the invention was assessed applying an modified in vitro inhibition assay. Here, the TNKS2 catalyzed NAD^+-dependent ribosylation of the enzyme itself (auto-parsylation) was detected using [^3H]-NAD^+ as substrate and applying the scintillation proximity assay (SPA) method to detect tritium-labeled, parsylated TNKS2. The intensity of the readout signal is proportional to the incorporated [^3H]-NAD^+. Inhibition of TNKS2 leads to a decreased incorporation of [^3H]-NAD^+ and consequently to a lower readout signal intensity. The concentration of a test compound which inhibits the enzyme activity by 50% (corresponds to half of the normed readout signal intensity) is reported as IC50.
# The assay was conducted in a 96 well MTP format with the identical TNKS2 enzyme sample and NAD^+ sample as in the histone ribosylation assay with the following modifications: TNKS2 enzyme sample was diluted with a modified assay buffer (50 mM MES pH 7.0, 1 mM DTT, 0.01% Triton X-100) to a final concentration of 6 nM TNKS2 and 10×NAD^+ solution was diluted with the modified assay buffer (s. above) to a final 0.445×NAD^+ solution doped with 100 Bq/ul [^3H]-NAD^+ [Catalog #NET443H050UC, Perkin Elmer, Waltham, Mass., USA]. Substrate solution (10 ul) was incubated with different test compound concentrations (2.5 ul in 10% DMSO in modified assay buffer) or control (2.5 ul 10% DMSO in modified assay buffer only) and enzyme (10 ul) over night at room temperature. Incorporated tritium was measured after addition of 50 ul SPA beads (1 mg/ml) [Catalog #RPNQ0095 20 mg/ml, Perkin Elmer, Waltham, Mass., USA; diluted 1:10 with Dulbecco's phosphate buffered saline, PBS Catalog #D8537, Sigma-Aldrich, Steinheim, Germany] and detection of the photon emission with a beta count plate reader [Wallac MicroBeta®, Perkin Elmer, Waltham, Mass., USA].
# [1] = tested on: wildtype Wnt signaling cascade; assay: HEK293 TOP Assay (Super TopFlash luciferase reporter, Wnt-3a stimulated); assay type: cell-based; details: Homo sapiens, HEK293, 16 h
# How it was run: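 Compounds (50 μM down to 15 nM, 3.16-fold steps, in CAFTY buffer pH 7.4, 2 mM Ca2+, 0.01% BSA) tested in parallel on TOP and FOP HEK293 reporter lines to define selective wildtype Wnt inhibition. Pathway driven by recombinant human Wnt-3a applied at 2500–5 ng/ml in two-fold dilutions.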
# [2] = HEK293 TOP reporter cell line, Wnt-3a at EC50, 16 hours incubation, compound dilution series 50 μM to 15 nM
# [3] = HEK293 TOP reporter cells, Wnt3a at EC50, 16 hours, luciferase
SMILES,IC50 (TNKS2) [µM],"IC50 [1, 2] [µM]","IC50 [1, 3] [µM]"
"CC1CCN(CCNC(=O)c2[nH]cnc2C(=O)Nc2ccc(NC(=O)c3ccc(F)cc3)cc2)CC1 [Example 164, N^4-{4-[(4-fluorobenzoyl)amino]phenyl}-N^5-[2-(4-methylpiperidin-1-yl)ethyl]-1H-imidazole-4,5-dicarboxamide]",0.06,0.91,
"O=C(Nc1ccc(NC(=O)c2nc[nH]c2C(=O)NCCN2CCCC(F)C2)cc1)c1ccc(F)cc1Cl (centres unmarked) [Example 226, N^4-{4-[(2-chloro-4-fluorobenzoyl)amino]phenyl}-N^5-[2-(3-fluoropiperidin-1-yl)ethyl]-1H-imidazole-4,5-dicarboxamide]",0.002,0.05,
"CC1CCN(CC(C)(C)NC(=O)c2[nH]cnc2C(=O)Nc2ccc(NC(=O)c3ccc(F)cc3Cl)cc2)CC1 [Example 155, N^4-{4-[(2-chloro-4-fluorobenzoyl)amino]phenyl}-N^5-[2-methyl-1-(4-methylpiperidin-1-yl)propan-2-yl]-1H-imidazole-4,5-dicarboxamide]",0.08,0.66,
"CNC(=O)c1nc[nH]c1C(=O)Nc1ccc(NC(=O)c2ccc(OCCN3CCN(C)CC3)cc2Cl)cc1 [Example 28, N^5-[4-({2-chloro-4-[2-(4-methylpiperazin-1-yl)ethoxy]benzoyl}amino)phenyl]-N^4-methyl-1H-imidazole-4,5-dicarboxamide]",0.18,0.53,0.68
"CC(C)(CNC(=O)c1[nH]cnc1C(=O)Nc1ccc(NC(=O)c2ccccc2Cl)cc1)N1CCCCC1 [Example 165, N^4-{4-[(2-chlorobenzoyl)amino]phenyl}-N^5-[2-methyl-2-(piperidin-1-yl)propyl]-1H-imidazole-4,5-dicarboxamide]",0.07,0.29,
"CNC(=O)c1nc[nH]c1C(=O)Nc1ccc(NC(=O)c2ccc(F)cc2Cl)c(C)c1 [Example 5, N^5-{4-[(2-chloro-4-fluorobenzoyl)amino]-3-methylphenyl}-N^4-methyl-1H-imidazole-4,5-dicarboxamide]",0.77,0.24,0.24
"CNC(=O)c1nc[nH]c1C(=O)Nc1ccc(NC(=O)c2ccc(F)cc2Cl)nc1 [Example 16, N^5-{6-[(2-chloro-4-fluorobenzoyl)amino]pyridin-3-yl}-N^4-methyl-1H-imidazole-4,5-dicarboxamide]",0.1,0.18,0.18
"CC(C)(CNC(=O)c1[nH]cnc1C(=O)Nc1ccc(NC(=O)c2ccc(F)cc2)cc1)N1CCCCC1 [Example 209, N^4-{4-[(4-fluorobenzoyl)amino]phenyl}-N^5-[2-methyl-2-(piperidin-1-yl)propyl]-1H-imidazole-4,5-dicarboxamide]",0.46,0.85,
"O=C(Nc1ccc(NC(=O)c2nc[nH]c2C(=O)NC(CO)CO)cc1)c1ccccc1Cl [Example 157, N^4-{4-[(2-chlorobenzoyl)amino]phenyl}-N^5-(1,3-dihydroxypropan-2-yl)-1H-imidazole-4,5-dicarboxamide]",1.4,8.4,
"CC(CNC(=O)c1[nH]cnc1C(=O)Nc1ccc(NC(=O)c2ccccc2Cl)cc1)N1CCCCC1 (centres unmarked) [Example 182, N^4-{4-[(2-chlorobenzoyl)amino]phenyl}-N^5-[2-(piperidin-1-yl)propyl]-1H-imidazole-4,5-dicarboxamide]",0.01,0.64,
"CCS(=N)(=O)c1ccc(C(=O)Nc2ccc(NC(=O)c3[nH]cnc3C(=O)NCCN3CCCCC3)cc2)c(Cl)c1 (centres unmarked) [Example 256, N^5-(4-{[2-chloro-4-(S-ethylsulfonimidoyl)benzoyl]amino}phenyl)-N^4-[2-(piperidin-1-yl)ethyl]-1H-imidazole-4,5-dicarboxamide]",0.01,0.9,
"CNC(=O)c1nc[nH]c1C(=O)Nc1ccc(NC(=O)c2cc(OCCN3CCCCC3)ccc2Cl)cc1 [Example 125, N^5-[4-({2-chloro-5-[2-(piperidin-1-yl)ethoxy]benzoyl}amino)phenyl]-N^4-methyl-1H-imidazole-4,5-dicarboxamide]",> 10,4.1,
"CCNC(=O)c1nc[nH]c1C(=O)Nc1ccc(NC(=O)c2ccccc2S(C)(=O)=O)cc1 [Example 257, N^4-ethyl-N^5-(4-{[2-(methylsulfonyl)benzoyl]amino}phenyl)-1H-imidazole-4,5-dicarboxamide]",5,2.6,

# Second part, the compound after the results:
IC50 (TNKS2) [µM],"IC50 [1, 2] [µM]","IC50 [1, 3] [µM]",SMILES
1.8,1.15,1.25,"CNC(=O)c1nc[nH]c1C(=O)Nc1ccc(NC(=O)c2ccccc2C)cc1 [Example 19, N^4-methyl-N^5-{4-[(2-methylbenzoyl)amino]phenyl}-1H-imidazole-4,5-dicarboxamide]"
0.03,0.08,,"CNC(=O)c1nc[nH]c1C(=O)Nc1ccc(NC(=O)c2cc(F)c(F)cc2Cl)cc1 [Example 242, N^5-{4-[(2-chloro-4,5-difluorobenzoyl)amino]phenyl}-N^4-methyl-1H-imidazole-4,5-dicarboxamide]"
0.03,0.08,,"CNC(=O)c1nc[nH]c1C(=O)Nc1ccc(NC(=O)c2cc(OC)c(OC)cc2Cl)cc1 [Example 240, N^5-{4-[(2-chloro-4,5-dimethoxybenzoyl)amino]phenyl}-N^4-methyl-1H-imidazole-4,5-dicarboxamide]"
3.8,4.05,,"CNC(=O)c1nc[nH]c1C(=O)Nc1ccc(NC(=O)c2cccc(OC)c2Cl)cc1 [Example 252, N^5-{4-[(2-chloro-3-methoxybenzoyl)amino]phenyl}-N^4-methyl-1H-imidazole-4,5-dicarboxamide]"
0.11,0.32,,"CC(C)CNC(=O)c1[nH]cnc1C(=O)Nc1ccc(NC(=O)c2ccc(F)cc2Cl)cc1 [Example 147, N^4-{4-[(2-chloro-4-fluorobenzoyl)amino]phenyl}-N^5-isobutyl-1H-imidazole-4,5-dicarboxamide]"
0.08,0.14,0.15,"CNC(=O)c1nc[nH]c1C(=O)Nc1ccc(NC(=O)c2ccc(Cl)cc2Cl)cc1 [Example 9, N^5-{4-[(2,4-dichlorobenzoyl)amino]phenyl}-N^4-methyl-1H-imidazole-4,5-dicarboxamide]"
0.07,0.27,,NC(=O)c1nc[nH]c1C(=O)Nc1ccc(NC(=O)c2ccc(F)cc2Cl)cc1 [Example 121]
0.05,0.27,,"O=C(Nc1ccc(NC(=O)c2nc[nH]c2C(=O)NCCF)cc1)c1ccc(F)cc1Cl [Example 173, N^4-{4-[(2-chloro-4-fluorobenzoyl)amino]phenyl}-N^5-(2-fluoroethyl)-1H-imidazole-4,5-dicarboxamide]"
